These results are taken from patent US7645758B2, “Heterocyclic compounds” (Janssen Pharmaceutica, N.Y., priority 2002, dated 2010).

Where two headings read alike, the source gives them in different places. Some results are limits rather than exact numbers.

In experiment [1] the target is T1, human histamine H4 receptor (Homo sapiens, UniProt Q9H3N8).
T1 construct: expressed in transfected cells; host or cells: SK-N-MC or COS7 cells, transiently transfected with pH4R; cell membranes
As to the kind of experiment: Binding assay on recombinant human histamine H4 receptor.

Experiment [2] has as its system Mast cells. As to the kind of experiment: Mast cell chemotaxis assay. It is filed as cell-based. The note with it: 10 μM Histamine. How it is done:
Mast Cell Chemotaxis Assay
Mast cell accumulation in mucosal epithelia is a well-known characteristic of allergic rhinitis and asthma. Transwells (Costar, Cambridge, Mass.) of a pore size 8 μm were coated with 100 μL of 100 ng/mL human fibronectin (Sigma) for 2 h at room temperature. […] Mast cells (2×10^5/well) were added to the top chamber. The plates were incubated for 3 h at 37° C. Transwells were removed and the cells in the bottom chamber were counted for sixty seconds using a flow cytometer.

For experiment [3], the system named is human eosinophils. The experiment can be described thus: Inhibition of eosinophil shape change (GAFS). It is filed as cell-based. The note with it: for effect on histamine-induced shape change: H1 or H2 specific antagonist. How it is done:
Eosinophil accumulation in sites of allergic reaction is a well-known characteristic of allergic rhinitis and asthma. […] Shape change is a cellular characteristic that precedes eosinophil chemotaxis.
Human granulocytes were isolated from human blood by a Ficoll gradient. The red blood cells were lysed with 5-10× Qiagen lysis buffer at room temperature for 5-7 min. Granulocytes were harvested and washed once with FACS buffer. The cells were resuspended at a density of 2×10^6 cells/mL in reaction buffer. […] Ten minutes later the cells were transferred to ice and fixed with 250 μL of ice-cold fixative buffer (2% formaldehyde) for 1 min.

[4] abbreviates: 3H-histamine competition, membranes of SK-N-MC or COS7 cells expressing human H4, read-out: Ki.
Setting [5] is: repeated in the chemotaxis table, read-out: Binding Assay Ki.
[6] abbreviates: Histamine 0 μM, 10 μM HR antagonist.
Where [7] appears, read: Histamine 0.01 μM, 10 μM HR antagonist.
Setting [8] is: Histamine 0.1 μM, 10 μM HR antagonist.
Where [9] appears, read: Histamine 1 μM, 10 μM HR antagonist.
[10] abbreviates: Histamine 10 μM, 10 μM HR antagonist.

T1 sequence (Q9H3N8 whole entry): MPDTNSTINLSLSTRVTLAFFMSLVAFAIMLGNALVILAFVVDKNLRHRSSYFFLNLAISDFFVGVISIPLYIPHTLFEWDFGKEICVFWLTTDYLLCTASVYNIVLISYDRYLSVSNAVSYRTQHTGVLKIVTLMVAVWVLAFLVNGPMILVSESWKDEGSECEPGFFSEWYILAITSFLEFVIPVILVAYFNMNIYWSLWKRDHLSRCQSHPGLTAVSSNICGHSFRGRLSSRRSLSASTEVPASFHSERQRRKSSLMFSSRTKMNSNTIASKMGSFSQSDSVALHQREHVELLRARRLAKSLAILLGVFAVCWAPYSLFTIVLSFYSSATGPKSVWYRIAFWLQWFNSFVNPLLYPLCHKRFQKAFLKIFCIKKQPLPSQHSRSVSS

`Cc1sc2cc(C(=O)N3CCN(C)CC3)[nH]c2c1C` [Example 16, (2,3-Dimethyl-4H-thieno[3,2-b]pyrrol-5-yl)-(4-methyl-piperazin-1-yl)-methanone]: the Ki (in general, the dissociation constant of the complex between target and ligand, obtained from inhibition or displacement) in experiment [1] (setting [4]) is 5 nM.
Regarding `Cc1csc2cc(C(=O)N3CCN(C)CC3)[nH]c12` [Example 13, (4-Methyl-piperazin-1-yl)-(3-methyl-4H-thieno[3,2-b]pyrrol-5-yl)-methanone], in experiment [2] (HR Antagonist 1 μM), the “% Inh” value is listed as 60%. The Ki in experiment [1] (setting [4]) and in experiment [1] (setting [5]) was 21 nM in each case.
In the case of `CN1CCN(C(=O)c2cc3sc(Cl)cc3[nH]2)CC1` [Example 10, (2-Chloro-4H-thieno[3,2-b]pyrrol-5-yl)-(4-methyl-piperazin-1-yl)-methanone], the Ki in experiment [1] (setting [4]) and in experiment [1] (setting [5]) was 40 nM throughout.
As for `O=C(c1cc2cc(Cl)sc2[nH]1)N1CCNCC1` [Example 5, (2-Chloro-6H-thieno[2,3-b]pyrrol-5-yl)-piperazin-1-yl-methanone], the Ki in experiment [1] (setting [4]) was determined as 56 nM.
On the same count and under the same terms, with `Cc1oc2cc(C(=O)N3CCN(C)CC3)[nH]c2c1C` [Example 15, (2,3-Dimethyl-4H-furo[3,2-b]pyrrol-5-yl)-(4-methyl-piperazin-1-yl)-methanone] the figure was 140 nM.
Regarding `CN1CCN(C(=O)c2cc3cc(Cl)sc3[nH]2)CC1` [Example 3, (2-Chloro-6H-thieno[2,3-b]pyrrol-5-yl)-(4-methyl-piperazin-1-yl)-methanone], the Ki in experiment [1] (setting [4]) and in experiment [1] (setting [5]) was 25 nM each time.
`O=C(c1cc2ccsc2[nH]1)N1CCN2CCCC2C1` (stereo not shown) [Example 2, (Hexahydro-pyrrolo[1,2-a]pyrazin-2-yl)-(6H-thieno[2,3-b]pyrrol-5-yl)-methanone]: the Ki in experiment [1] (setting [4]) was 461 nM.
On the same count and under the same terms, the value for `Cc1cc2[nH]c(C(=O)N3CCN(C)CC3)cc2o1` [Example 14, (2-Methyl-4H-furo[3,2-b]pyrrol-5-yl)-(4-methyl-piperazin-1-yl)-methanone] was 343 nM; that for `O=C(c1cc2sc(Cl)cc2[nH]1)N1CCN2CCCC2C1` (stereo not shown) [Example 11, (2-Chloro-4H-thieno[3,2-b]pyrrol-5-yl)-(hexahydro-pyrrolo[1,2-a]pyrazin-2-yl)-methanone] was 715 nM.
The same measure, in the same setting: the value for `CN1CCN(C(=O)c2cc3sccc3[nH]2)CC1` [Example 7, (4-Methyl-piperazin-1-yl)-(4H-thieno[3,2-b]pyrrol-5-yl)-methanone] was 125 nM; that for `CN1CCN(C(=O)c2cc3ccsc3[nH]2)CC1` [Example 1, (4-Methyl-piperazin-1-yl)-(6H-thieno[2,3-b]pyrrol-5-yl)-methanone] was 85 nM.
For the compound `O=C(c1cc2cc(Cl)sc2[nH]1)N1CCN2CCCC2C1` (stereo not shown) [Example 4, (2-Chloro-6H-thieno[2,3-b]pyrrol-5-yl)-(hexahydro-pyrrolo[1,2-a]pyrazin-2-yl)-methanone], the “% Inh” value in experiment [2] (HR Antagonist 1 μM) and in experiment [2] (HR Antagonist 10 μM) was less than 5% in each case. Also, the Ki in experiment [1] (setting [4]) and in experiment [1] (setting [5]) was 176 nM each time.
Turning to `O=C(c1cc2sccc2[nH]1)N1CCNCC1` [Example 8, Piperazin-1-yl-(4H-thieno[3,2-b]pyrrol-5-yl)-methanone], in experiment [1] (setting [4]), the inhibition constant (Ki) was 343 nM.
Still for that read-out and setting: with `CN1CCN(C(=O)c2cc3occc3[nH]2)CC1` [Example 6, (4H-Furo[3,2-b]pyrrol-5-yl)-(4-methyl-piperazin-1-yl)-methanone] the figure was 840 nM; with `Cc1c(Cl)sc2cc(C(=O)N3CCNCC3)[nH]c12` [Example 24, (2-Chloro-3-methyl-4H-thieno[3,2-b]pyrrol-5-yl)-piperazin-1-yl-methanone], 30 nM; with `CC1CN(C(=O)c2cc3sccc3[nH]2)CCN1` (stereo not shown) [Example 9, (3-Methyl-piperazin-1-yl)-(4H-thieno[3,2-b]pyrrol-5-yl)-methanone], 733 nM.
Still for that read-out and setting: the value for `CN1CCN(C(=O)c2cc3sc(Cl)c(Cl)c3[nH]2)CC1` [Example 25, (2,3-Dichloro-4H-thieno[3,2-b]pyrrol-5-yl)-(4-methyl-piperazin-1-yl)-methanone] was 5.5 nM; that for `CN1CCN(C(=O)c2cc3scc(Br)c3[nH]2)CC1` [Example 12, (3-Bromo-4H-thieno[3,2-b]pyrrol-5-yl)-(4-methyl-piperazin-1-yl)-methanone] was 56 nM.
As to `NCCc1c[nH]cn1` [Histamine, histamine], the “Fold Change” value in experiment [3] (Histamine 0.01 μM, No HR Antagonist) stood at 1.01; in experiment [3] (Histamine 0.1 μM, No HR Antagonist), 1.21; in experiment [3] (Histamine 1 μM, No HR Antagonist) it was 1.31; in experiment [3] (Histamine 10 μM, No HR Antagonist) it was 1.34. The “shape change in eosinophils” value in experiment [3] (histamine alone) is reported as “induces a dose-dependent shape change”.
Regarding `O=C(c1cc2scc(Br)c2[nH]1)N1CCNCC1` [Example 19, (3-Bromo-4H-thieno[3,2-b]pyrrol-5-yl)-piperazin-1-yl-methanone], the Ki in experiment [1] (setting [4]) stood at 410 nM.
For `CC1CN(C(=O)c2cc3scc(Br)c3[nH]2)CCN1` (stereo not shown) [Example 20, (3-Bromo-4H-thieno[3,2-b]pyrrol-5-yl)-(3-methyl-piperazin-1-yl)-methanone], the “% Inh” value in experiment [2] (HR Antagonist 1 μM) and in experiment [2] (HR Antagonist 10 μM) was less than 5% each time. For the same compound, the Ki in experiment [1] (setting [4]) and in experiment [1] (setting [5]) was 980 nM in each case.
On to `Cc1csc2cc(C(=O)N3CCNCC3)[nH]c12` [Example 21, (3-Methyl-4H-thieno[3,2-b]pyrrol-5-yl)-piperazin-1-yl-methanone], for which the Ki in experiment [1] (setting [4]) was determined as 80 nM.
Same read-out and setting: with `Cc1csc2cc(C(=O)N3CCNC(C)C3)[nH]c12` (stereo not shown) [Example 22, (3-Methyl-piperazin-1-yl)-(3-methyl-4H-thieno[3,2-b]pyrrol-5-yl)-methanone] the figure was 161 nM; with `Cc1c(Cl)sc2cc(C(=O)N3CCN(C)CC3)[nH]c12` [Example 23, (2-Chloro-3-methyl-4H-thieno[3,2-b]pyrrol-5-yl)-(4-methyl-piperazin-1-yl)-methanone], 3 nM.
On to `CN(C)CCOC(c1ccccc1)c1ccccc1` [diphenhydramine], for which the “effect on histamine-induced shape change” value in experiment [3] was “did not alter”. The “Fold Change” value in experiment [3] (setting [6]) amounted to 1.00; in experiment [3] (setting [7]) it was 1.03; in experiment [3] (setting [8]), 1.18; in experiment [3] (setting [9]) it was 1.50; in experiment [3] (setting [10]), 1.63.
As to `CN1CCN(C(=O)c2cc3c(Cl)c(Cl)sc3[nH]2)CC1` [Example 17, (2,3-Dichloro-6H-thieno[2,3-b]pyrrol-5-yl)-(4-methyl-piperazin-1-yl)-methanone], the Ki in experiment [1] (setting [4]) is 10 nM.
Consider `CNC(=C[N+](=O)[O-])NCCSCc1ccc(CN(C)C)o1` [ranatidine], for which the “effect on histamine-induced shape change” value in experiment [3] is “did not alter”. Moreover, the “Fold Change” value in experiment [3] (setting [6]) stood at 1.00; in experiment [3] (setting [7]), 1.04; in experiment [3] (setting [8]), 1.21; in experiment [3] (setting [9]), 1.49; in experiment [3] (setting [10]), 1.64.
As to `Cc1cc2[nH]c(C(=O)N3CCNCC3)cc2o1` [Example 18, (2-Methyl-4H-furo[3,2-b]pyrrol-5-yl)-piperazin-1-yl-methanone], the Ki in experiment [1] (setting [4]) stood at 770 nM.
